Source: ChEMBL document CHEMBL3046635, “Synthesis and Herbicidal Activity of New Pyrazole-4-carboxamide Derivatives” (J Pestic Sci, 2004)
Active and inactive are the calls of the source.

What was measured:
Eleocharis acicularis [1] = assay: Pre-emergence herbicidal activity against Eleocharis acicularis at 100 g a.i/ha measured after 14 days; assay type: functional, organism-based
Oryza sativa [2] = assay: Phytotoxicity against Oryza sativa cv. Koshihikari (rice) at 100 g a.i/ha measured after 14 days; assay type: organism-based; settings: in vivo, 336 h
[3] = test system: Schoenoplectiella juncoides; assay: Pre-emergence herbicidal activity against Schoenoplectiella juncoides at 100 g a.i/ha measured after 14 days; assay type: functional, organism-based
Pontederia vaginalis [4] = assay: Pre-emergence herbicidal activity against Monochoria vaginalis at 100 g a.i/ha measured after 14 days; assay type: functional, organism-based
Ammannia multiflora [5] = assay: Pre-emergence herbicidal activity against Ammannia multiflora at 100 g a.i/ha measured after 14 days; assay type: functional, organism-based
Rotala indica [6] = assay: Pre-emergence herbicidal activity against Rotala indica at 100 g a.i/ha measured after 14 days; assay type: functional, organism-based
Elatine triandra [7] = assay: Pre-emergence herbicidal activity against Elatine triandra at 100 g a.i/ha measured after 14 days; assay type: functional, organism-based
Lindernia procumbens [8] = assay: Pre-emergence herbicidal activity against Lindernia procumbens at 100 g a.i/ha measured after 14 days; assay type: functional, organism-based
Cyperus difformis [9] = assay: Pre-emergence herbicidal activity against Cyperus difformis at 100 g a.i/ha measured after 14 days; assay type: functional, organism-based
Echinochloa oryzicola [10] = assay: Pre-emergence herbicidal activity against Echinochloa oryzicola at 100 g a.i/ha measured after 14 days; assay type: functional, organism-based
Oryza sativa [11] = assay: Phytotoxicity against Oryza sativa cv. Koshihikari (rice) at 500 g a.i/ha measured after 14 days; assay type: organism-based; settings: in vivo, 336 h
Eleocharis acicularis [12] = assay: Pre-emergence herbicidal activity against Eleocharis acicularis at 500 g a.i/ha measured after 14 days; assay type: functional, organism-based
Pontederia vaginalis [13] = assay: Pre-emergence herbicidal activity against Monochoria vaginalis at 500 g a.i/ha measured after 14 days; assay type: functional, organism-based
[14] = test system: Schoenoplectiella juncoides; assay: Pre-emergence herbicidal activity against Schoenoplectiella juncoides at 500 g a.i/ha measured after 14 days; assay type: functional, organism-based
Ammannia multiflora [15] = assay: Pre-emergence herbicidal activity against Ammannia multiflora at 500 g a.i/ha measured after 14 days; assay type: functional, organism-based
Elatine triandra [16] = assay: Pre-emergence herbicidal activity against Elatine triandra at 500 g a.i/ha measured after 14 days; assay type: functional, organism-based
Rotala indica [17] = assay: Pre-emergence herbicidal activity against Rotala indica at 500 g a.i/ha measured after 14 days; assay type: functional, organism-based
Lindernia procumbens [18] = assay: Pre-emergence herbicidal activity against Lindernia procumbens at 500 g a.i/ha measured after 14 days; assay type: functional, organism-based
Echinochloa oryzicola [19] = assay: Pre-emergence herbicidal activity against Echinochloa oryzicola at 500 g a.i/ha measured after 14 days; assay type: functional, organism-based
Cyperus difformis [20] = assay: Pre-emergence herbicidal activity against Cyperus difformis at 500 g a.i/ha measured after 14 days; assay type: functional, organism-based
Eleocharis acicularis [21] = assay: Post-emergence herbicidal activity against Eleocharis acicularis assessed as bleaching of stem/leaf parts; assay type: functional, organism-based; further: test concentration or dose not given here
Eleocharis acicularis [22] = assay: Pre-emergence herbicidal activity against Eleocharis acicularis assessed as bleaching of stem/leaf parts; assay type: functional, organism-based
Ammannia multiflora [23] = assay: Pre-emergence herbicidal activity against Ammannia multiflora assessed as bleaching of stem/leaf parts; assay type: functional, organism-based
Rotala indica [24] = assay: Pre-emergence herbicidal activity against Rotala indica assessed as bleaching of stem/leaf parts; assay type: functional, organism-based
Elatine triandra [25] = assay: Pre-emergence herbicidal activity against Elatine triandra assessed as bleaching of stem/leaf parts; assay type: functional, organism-based
Lindernia procumbens [26] = assay: Pre-emergence herbicidal activity against Lindernia procumbens assessed as bleaching of stem/leaf parts; assay type: functional, organism-based
[27] = test system: Schoenoplectiella juncoides; assay: Pre-emergence herbicidal activity against Schoenoplectiella juncoides assessed as bleaching of stem/leaf parts; assay type: functional, organism-based
Pontederia vaginalis [28] = assay: Pre-emergence herbicidal activity against Monochoria vaginalis assessed as bleaching of stem/leaf parts; assay type: functional, organism-based
Cyperus difformis [29] = assay: Pre-emergence herbicidal activity against Cyperus difformis assessed as bleaching of stem/leaf parts; assay type: functional, organism-based
Echinochloa oryzicola [30] = assay: Pre-emergence herbicidal activity against Echinochloa oryzicola assessed as bleaching of stem/leaf parts; assay type: functional, organism-based
Ammannia multiflora [31] = assay: Post-emergence herbicidal activity against Ammannia multiflora assessed as bleaching of stem/leaf parts; assay type: functional, organism-based; further: test concentration or dose not given here
Elatine triandra [32] = assay: Post-emergence herbicidal activity against Elatine triandra assessed as bleaching of stem/leaf parts; assay type: functional, organism-based; further: test concentration or dose not given here
Rotala indica [33] = assay: Post-emergence herbicidal activity against Rotala indica assessed as bleaching of stem/leaf parts; assay type: functional, organism-based; further: test concentration or dose not given here
[34] = test system: Schoenoplectiella juncoides; assay: Post-emergence herbicidal activity against Schoenoplectiella juncoides assessed as bleaching of stem/leaf parts; assay type: functional, organism-based; further: test concentration or dose not given here
Lindernia procumbens [35] = assay: Post-emergence herbicidal activity against Lindernia procumbens assessed as bleaching of stem/leaf parts; assay type: functional, organism-based; further: test concentration or dose not given here
Pontederia vaginalis [36] = assay: Post-emergence herbicidal activity against Monochoria vaginalis assessed as bleaching of stem/leaf parts; assay type: functional, organism-based; further: test concentration or dose not given here
Cyperus difformis [37] = assay: Post-emergence herbicidal activity against Cyperus difformis assessed as bleaching of stem/leaf parts; assay type: functional, organism-based; further: test concentration or dose not given here
Echinochloa oryzicola [38] = assay: Post-emergence herbicidal activity against Echinochloa oryzicola assessed as bleaching of stem/leaf parts; assay type: functional, organism-based; further: test concentration or dose not given here

SMILES | Activity (Eleocharis acicularis [1]) | Activity (Oryza sativa [2]) | Activity [3] | Activity (Pontederia vaginalis [4]) | Activity (Ammannia multiflora [5]) | Activity (Rotala indica [6]) | Activity (Elatine triandra [7]) | Activity (Lindernia procumbens [8]) | Activity (Cyperus difformis [9]) | Activity (Echinochloa oryzicola [10]) | Activity (Oryza sativa [11]) | Activity (Eleocharis acicularis [12]) | Activity (Pontederia vaginalis [13]) | Activity [14] | Activity (Ammannia multiflora [15]) | Activity (Elatine triandra [16]) | Activity (Rotala indica [17]) | Activity (Lindernia procumbens [18]) | Activity (Echinochloa oryzicola [19]) | Activity (Cyperus difformis [20]) | also measured
Cn1cc(C(=O)NOc2ccc(F)cc2F)c(OCc2cccc(C(F)(F)F)c2)n1 | Active | Non-toxic | inactive | Active | Active | Active | Active | Active | Active | inactive | Non-toxic | Active | Active | Active | Active | Active | Active | Active | Active | Active | Activity (Eleocharis acicularis [21]): Active; Activity (Eleocharis acicularis [22]): Active; Activity (Ammannia multiflora [23]): Active; Activity (Rotala indica [24]): Active; Activity (Elatine triandra [25]): Active; Activity (Lindernia procumbens [26]): Active; Activity [27]: Active; Activity (Pontederia vaginalis [28]): Active; Activity (Cyperus difformis [29]): Active; Activity (Echinochloa oryzicola [30]): Active; Activity (Ammannia multiflora [31]): Active; Activity (Elatine triandra [32]): Active; Activity (Rotala indica [33]): Active; Activity [34]: Active; Activity (Lindernia procumbens [35]): Active; Activity (Pontederia vaginalis [36]): Active; Activity (Cyperus difformis [37]): Active; Activity (Echinochloa oryzicola [38]): Active
Cn1cc(C(=O)NOc2ccccc2)c(OCc2cccc(C(F)(F)F)c2)n1 | Active | Non-toxic | inactive | Active | Active | Active | Active | Active | Active | Active | Non-toxic | Active | Active | Active | Active | Active | Active | Active | Active | Active | Activity (Eleocharis acicularis [21]): Active; Activity (Eleocharis acicularis [22]): Active; Activity (Ammannia multiflora [23]): Active; Activity (Rotala indica [24]): Active; Activity (Elatine triandra [25]): Active; Activity (Lindernia procumbens [26]): Active; Activity [27]: Active; Activity (Pontederia vaginalis [28]): Active; Activity (Cyperus difformis [29]): Active; Activity (Echinochloa oryzicola [30]): Active; Activity (Ammannia multiflora [31]): Active; Activity (Elatine triandra [32]): Active; Activity (Rotala indica [33]): Active; Activity [34]: Active; Activity (Lindernia procumbens [35]): Active; Activity (Pontederia vaginalis [36]): Active; Activity (Cyperus difformis [37]): Active; Activity (Echinochloa oryzicola [38]): Active
CONC(=O)c1cn(C)nc1OCc1cccc(C(F)(F)F)c1 | inactive | Non-toxic | Active | Active | Active | Active | Active | Active | Active | Active | Non-toxic | Active | Active | Active | Active | Active | Active | Active | Active | Active | Activity (Eleocharis acicularis [21]): Active; Activity (Eleocharis acicularis [22]): Active; Activity (Ammannia multiflora [23]): Active; Activity (Rotala indica [24]): Active; Activity (Elatine triandra [25]): Active; Activity (Lindernia procumbens [26]): Active; Activity [27]: Active; Activity (Pontederia vaginalis [28]): Active; Activity (Cyperus difformis [29]): Active; Activity (Echinochloa oryzicola [30]): Active; Activity (Ammannia multiflora [31]): Active; Activity (Elatine triandra [32]): Active; Activity (Rotala indica [33]): Active; Activity [34]: Active; Activity (Lindernia procumbens [35]): Active; Activity (Pontederia vaginalis [36]): Active; Activity (Cyperus difformis [37]): Active; Activity (Echinochloa oryzicola [38]): Active
Cn1cc(C(=O)Nc2ccc(F)cc2F)c(OCc2cccc(C(F)(F)F)c2)n1 | Active | Non-toxic | inactive | Active | Active | Active | Active | Active | Active | inactive | Toxic | Active | Active | Active | Active | Active | Active | Active | inactive | Active | Activity (Eleocharis acicularis [21]): Active; Activity (Eleocharis acicularis [22]): Active; Activity (Ammannia multiflora [23]): Active; Activity (Rotala indica [24]): Active; Activity (Elatine triandra [25]): Active; Activity (Lindernia procumbens [26]): Active; Activity [27]: Active; Activity (Pontederia vaginalis [28]): Active; Activity (Cyperus difformis [29]): Active; Activity (Echinochloa oryzicola [30]): Active; Activity (Ammannia multiflora [31]): Active; Activity (Elatine triandra [32]): Active; Activity (Rotala indica [33]): Active; Activity [34]: Active; Activity (Lindernia procumbens [35]): Active; Activity (Pontederia vaginalis [36]): Active; Activity (Cyperus difformis [37]): Active; Activity (Echinochloa oryzicola [38]): Active
Cn1cc(C(=O)NOc2ccc(F)cc2)c(OCc2cccc(C(F)(F)F)c2)n1 | Active | Non-toxic | inactive | Active | Active | Active | Active | Active | inactive | inactive | Non-toxic | Active | Active | Active | Active | Active | Active | Active | Active | Active | Activity (Eleocharis acicularis [21]): Active; Activity (Eleocharis acicularis [22]): Active; Activity (Ammannia multiflora [23]): Active; Activity (Rotala indica [24]): Active; Activity (Elatine triandra [25]): Active; Activity (Lindernia procumbens [26]): Active; Activity [27]: Active; Activity (Pontederia vaginalis [28]): Active; Activity (Cyperus difformis [29]): Active; Activity (Echinochloa oryzicola [30]): Active; Activity (Ammannia multiflora [31]): Active; Activity (Elatine triandra [32]): Active; Activity (Rotala indica [33]): Active; Activity [34]: Active; Activity (Lindernia procumbens [35]): Active; Activity (Pontederia vaginalis [36]): Active; Activity (Cyperus difformis [37]): Active; Activity (Echinochloa oryzicola [38]): Active
CCONC(=O)c1cn(C)nc1OCc1cccc(C(F)(F)F)c1 | Active | Non-toxic | Active | Active | Active | Active | Active | Active | Active | Active | Non-toxic | Active | Active | Active | Active | Active | Active | Active | Active | Active | Activity (Eleocharis acicularis [21]): Active; Activity (Eleocharis acicularis [22]): Active; Activity (Ammannia multiflora [23]): Active; Activity (Rotala indica [24]): Active; Activity (Elatine triandra [25]): Active; Activity (Lindernia procumbens [26]): Active; Activity [27]: Active; Activity (Pontederia vaginalis [28]): Active; Activity (Cyperus difformis [29]): Active; Activity (Echinochloa oryzicola [30]): Active; Activity (Ammannia multiflora [31]): Active; Activity (Elatine triandra [32]): Active; Activity (Rotala indica [33]): Active; Activity [34]: Active; Activity (Lindernia procumbens [35]): Active; Activity (Pontederia vaginalis [36]): Active; Activity (Cyperus difformis [37]): Active; Activity (Echinochloa oryzicola [38]): Active
